Test results as given in PMC6117091, “The C. difficile clnRAB operon initiates adaptations to the host environment in response to LL-37” (PLoS Pathogens, 2018).
In brackets after ≈: the same amount, converted by molar mass. Where two headings read alike, the source gives them in different places. Where a SMILES comes first, the peptide text is derived from it. Bridges are numbered along the chain shown (N, C = ends). Where no end group is shown, it is not given here. [ ]: non-standard residue; d: D form. The star is where a group is joined. X1 = CC[C@H](C)CCCCC(=O)*; Dab = NCC[C@H](N)C(=O)O

Tests used:
[1] = target: LL-37 (human cathelicidin) (human)
[2] = tested on: clnR expression in C. difficile 630Δerm; test: clnR expression by qRT-PCR after exposure to antimicrobials (induction specificity); conditions: for Relative clnR expression: BHIS, mean of three replicates ± SEM; for Induction of clnR transcription (in words): concentrations of Table 1
C. difficile 630Δerm = test: Minimum inhibitory concentration (MIC); type: cell-based, Clostridioides difficile; conditions: Mueller-Hinton Broth, 24 h, 37°C, anaerobic, ~5 x 10^5 CFU/ml
Experimental: (§1) Minimum inhibitory concentrations (MIC) were determined as previously described. […] Briefly, overnight cultures of C. difficile strains were diluted 1:50 in Mueller-Hinton Broth (Difco) and grown to OD600 of 0.45 (~5 x 10^7 CFU/ml). Cultures were then diluted 1:10 in MHB and seeded at a further 1:10 dilution in a round-bottom 96-well plate prepared with serial dilutions of antimicrobials for a starting concentration of ~5 x 10^5 CFU/ml. Plates were incubated for 24 h at 37°C in the anaerobic chamber.

[3] = tested on: C. difficile clnAB mutant (MC935); test: Minimum inhibitory concentration (MIC); type: cell-based, Clostridioides difficile; conditions: Mueller-Hinton Broth, 24 h, 37°C, anaerobic, ~5 x 10^5 CFU/ml
Experimental: as §1

[4] = tested on: C. difficile clnR mutant (MC885); test: Minimum inhibitory concentration (MIC); type: cell-based, Clostridioides difficile; conditions: Mueller-Hinton Broth, 24 h, 37°C, anaerobic, ~5 x 10^5 CFU/ml
Experimental: as §1

[5] = Clostridioides difficile, read-out: MIC

Compound: Recombinant N-terminally His-tagged ClnR (natural protein)
- Kd [1]: 83 nM

Compound: Lysozyme
- Relative clnR expression ([2]; 1 mg/ml, normalized to 630Δerm without antimicrobials): 1.1 ± 0.3
- Induction of clnR transcription (in words) [2]: none of the other cell-surface-active antimicrobials tested

Compound: CC[C@H](C)CCCCC(=O)N[C@@H](CCN)C(=O)N[C@H](C(=O)N[C@@H](CCN)C(=O)N[C@H]1CCNC(=O)[C@H]([C@@H](C)O)NC(=O)[C@H](CCN)NC(=O)[C@H](CCN)NC(=O)[C@H](CC(C)C)NC(=O)[C@@H](Cc2ccccc2)NC(=O)[C@H](CCN)NC1=O)[C@@H](C)O [Polymyxin B, polymyxin B] (X1-[Dab]T[Dab][Dab][Dab][dF]L[Dab][Dab]T; lactam 4-C (inferred); N-terminus assumed)
- MIC (C. difficile 630Δerm): 500 µg/mL (≈ 415 µM)
- MIC [3]: 500 µg/mL (≈ 415 µM)
- MIC [4]: 500 µg/mL (≈ 415 µM)
- Relative clnR expression ([2]; 200 μg/ml, normalized to 630Δerm without antimicrobials): 1.2 ± 0.2
- Induction of clnR transcription (in words) [2]: none of the other cell-surface-active antimicrobials tested

Compound: CN[C@H](CC(C)C)C(=O)N[C@H]1C(=O)N[C@@H](CC(N)=O)C(=O)N[C@H]2C(=O)N[C@H]3C(=O)N[C@H](C(=O)N[C@H](C(=O)O)c4cc(O)cc(O)c4-c4cc3ccc4O)[C@H](O)c3ccc(c(Cl)c3)Oc3cc2cc(c3O[C@@H]2O[C@H](CO)[C@@H](O)[C@H](O)[C@H]2O[C@H]2C[C@](C)(N)[C@H](O)[C@H](C)O2)Oc2ccc(cc2Cl)[C@H]1O [Vancomycin, vancomycin]
- MIC (C. difficile 630Δerm; [5]): 1 µg/mL (≈ 0.69 µM)
- MIC [3, 5]: 1 µg/mL (≈ 0.69 µM)
- MIC [4, 5]: 1 µg/mL (≈ 0.69 µM)
- Induction of clnR transcription (in words) [2]: none of the other cell-surface-active antimicrobials tested

Compound: CC1(C)S[C@@H]2[C@H](NC(=O)[C@H](N)c3ccccc3)C(=O)N2[C@H]1C(=O)O [Ampicillin, ampicillin]
- MIC (C. difficile 630Δerm; [5]): 4 µg/mL (≈ 11.4 µM)
- MIC [3, 5]: 4 µg/mL (≈ 11.4 µM)
- MIC [4, 5]: 4 µg/mL (≈ 11.4 µM)
- Induction of clnR transcription (in words) [2]: none of the other cell-surface-active antimicrobials tested

Compound: mCRAMP
- Relative clnR expression ([2]; 2 μg/ml, normalized to 630Δerm in BHIS without antimicrobials): 111.4 ± 27.3
- Induction of clnR transcription (in words) [2]: also induced

Compound: nisin (ITSISLCTPGCKTGALMGCNMKTATCHCSIHVSK; also: lantibiotic, modified residues and rings not given here; UniProt P13068 24-57, looked up)
- MIC (C. difficile 630Δerm): 360 µg/mL
- MIC [3]: 360 µg/mL
- MIC [4]: 360 µg/mL
- Relative clnR expression ([2]; 7.5 μg/ml, normalized to 630Δerm without antimicrobials): 1.1 ± 0.4
- Induction of clnR transcription (in words) [2]: none of the other cell-surface-active antimicrobials tested
